According to PMC12649225, “Machine Learning-Identified Potent Antimicrobial Peptides Against Multidrug-Resistant Bacteria and Skin Infections” (Antibiotics, 2025):
Like-named read-outs stand apart in the source and are kept apart here. Residues, ends and D or L forms follow the SMILES beside them.

Key:
MDR ESKAPE pathogens = test: Bactericidal activity (LC99.9), statements for the whole panel; assay type: cell-based
Description: (§1) The bacterial strains used in this study included S. aureus JAR060131 [54] and the MDR ESKAPE pathogens Enterococcus faecium LUH15122, S. aureus LUH14616, Klebsiella pneumoniae LUH15104, A. baumannii RUH875 [55], Pseudomonas aeruginosa LUH15103, Enterobacter cloacae LUH15114, and the colistin-resistant Escherichia coli LUH15117. Before each experiment, bacteria from frozen stocks were cultured at 37 °C for 18–24 h on sheep blood agar plates (BioMérieux, Marcy-l’Étoile, France). All strains were then cultured from colonies either in tryptic soy broth (TSB; Oxoid, Basingstoke, UK) for A. baumannii, S. aureus, and E. faecium, or in brain heart infusion broth (BHI; Oxoid) for K. pneumoniae, P. aeruginosa, E. cloacae, and E. coli at 37 °C with shaking at 120 rpm for 18–24 h. Subsequently, bacteria were cultured to mid-logarithmic phase in the media described above at 37 °C with shaking at 120 rpm for 3 h. Bacteria were then washed twice with PBS and diluted to the required inoculum suspension concentration in Roswell Park Memorial Institute (RPMI)-1640 medium containing 20 mM HEPES and L-glutamine but without sodium bicarbonate (Sigma-Aldrich; hereafter referred to as RPMI), based on optical density at 620 nm. RPMI was selected because it supports bacterial growth without impairing AMP activity.
(§2) Bactericidal activity was assessed as described by de Breij et al.. Briefly, mid-logarithmic phase bacterial cultures were diluted to a final concentration of 1 × 10^7 colony-forming units (CFU)/mL in RPMI. Then, 10 µL was added to a final volume of 100 µL in RPMI (final concentration: 1 × 10^6 CFU/mL). Cultures were exposed to peptides either in RPMI or RPMI supplemented with 50% (v/v) human plasma (hereafter referred to as 50% plasma), obtained from four healthy volunteers after informed consent, frozen after collection, and pooled (Sanquin, Amsterdam, The Netherlands). Assays were performed in duplicate using round-bottom polypropylene microtiter plates (Costar, Arlington, VA, USA) and repeated three times. In the initial screening phase (Table 1, Table 2 and Table S1), peptide solutions of 1, 10, and 100 μM (final concentration) were tested against A. baumannii RUH875 and S. aureus JAR060131 in RPMI and in 50% plasma. After this selection process, two lead candidates, their RI variants, and reference peptides were tested with a final concentration range of 0.12 to 120 µM (two-fold dilutions) in RPMI and in 50% plasma (Table 3). The peptides were also tested against ESKAPE pathogens, with Synthetic Antimicrobial and Antibiofilm Peptide (SAAP)-148 as a reference peptide (Table 4).RPMI or 50% plasma served as no-treatment controls. After 2 and 18 h of incubation at 37 °C with shaking at 120 rpm in a humidified environment, the numbers of viable bacteria were quantified. Bactericidal activity was expressed as the lethal concentration 99.9% (LC99.9), defined as the lowest peptide concentration that killed ≥99.9% of bacteria within 2 h (LC99.9_2h) or 18 h (LC99.9_18h) compared to the initial inoculum.

A. baumannii RUH875 [1] = system: A. baumannii RUH875
Description: (§3) Bacteria incubated in PBS alone served as no-treatment controls. At five time points (1, 2, 5, 30, and 120 min), duplicate 50 µL samples were taken and immediately mixed with 50 µL of 0.05% (v/v) sodium polyanethol sulfonate (SPS; Sigma-Aldrich) in PBS to neutralize residual peptide activity. The number of viable bacteria was quantified by plating 10 µL aliquots of serial 10-fold dilutions onto sheep blood agar plates. Colonies were counted after 24 h of incubation at 37 °C.

S. aureus JAR060131 [2] = system: S. aureus JAR060131
Description: as §3

E. coli LUH15117 = assay type: cell-based; conditions: for LC99.9 E. coli LUH15117 RPMI 2 h: LUH15117, 2 h
Description: as §1, §2

K. pneumoniae LUH15104 = assay type: cell-based; conditions: for LC99.9 K. pneumoniae LUH15104 50% Plasma 2 h / LC99.9 K. pneumoniae LUH15104 RPMI 2 h: LUH15104, 2 h; for LC99.9 K. pneumoniae LUH15104 50% Plasma 18 h / LC99.9 K. pneumoniae LUH15104 RPMI 18 h: LUH15104, 18 h
Description: as §1, §2

A. baumannii RUH875 [3] = assay type: cell-based; conditions: for LC99.9 A. baumannii RUH875 50% Plasma 2 h: RUH875, 2 h; for LC99.9 A. baumannii RUH875 50% Plasma 18 h: RUH875, 18 h
Description: as §1, §2

E. cloacae LUH15114 = assay type: cell-based; conditions: for LC99.9 E. cloacae LUH15114 50% Plasma 2 h / LC99.9 E. cloacae LUH15114 RPMI 2 h: LUH15114, 2 h
Description: as §1, §2

S. aureus LUH14616 = assay type: cell-based; conditions: for LC99.9 S. aureus LUH14616 50% Plasma 2 h / LC99.9 S. aureus LUH14616 RPMI 2 h: LUH14616, 2 h; for LC99.9 S. aureus LUH14616 50% Plasma 18 h / LC99.9 S. aureus LUH14616 RPMI 18 h: LUH14616, 18 h
Description: as §1, §2

P. aeruginosa LUH15103 = assay type: cell-based; conditions: for LC99.9 P. aeruginosa LUH15103 50% Plasma 2 h / LC99.9 P. aeruginosa LUH15103 RPMI 2 h: LUH15103, 2 h; for LC99.9 P. aeruginosa LUH15103 50% Plasma 18 h / LC99.9 P. aeruginosa LUH15103 RPMI 18 h: LUH15103, 18 h
Description: as §1, §2

S. aureus JAR060131 [4] = test: 3D human skin equivalent (HSE) infection model; assay type: cell-based, Staphylococcus aureus
Description: Human keratinocytes (Ker-CT cell line; ATCC CRL-4048; RRID: CVCL_S877; ATCC, Manassas, VA, USA (October 2017)) were used to generate human skin equivalents (HSEs) following the method described by Gent et al.. Briefly, HSEs were cultured for 12 days, after which the culture medium was replaced with antibiotic-free medium, and cells were grown for an additional two days before infection (Figure S2). On the day of infection, HSEs were inoculated with 300 µL of S. aureus JAR060131 suspension (3 × 10^5 CFU) and incubated for 1 h at 37 °C with 5% CO2. Following incubation, the bacterial suspension was removed, and HSEs were washed once with 500 µL PBS. HSEs were then treated for 4 h with PBS (control), GDST-038, GDST-045, their RI variants, or the reference peptide SAAP-148 at concentrations of 3.75, 15, and 60 μM, in triplicate. Subsequently, supernatants containing planktonic (non-adherent) bacteria were collected and kept on ice. Peptide activity was neutralized by adding SPS (final concentration: 0.025% (v/v)). Adherent bacteria within HSEs were quantified by homogenizing the tissues in 0.5 mL PBS containing 0.025% (v/v) SPS, using five zirconia beads (Ø 2 mm; BioSpec Products, Bartlesville, OK, USA) in a MagNA Lyser System (Roche) for three cycles of 30 sec at 7000 rpm, with 30 sec cooling intervals on ice. Both supernatants and homogenized fractions were serially diluted, plated on blood agar, and incubated overnight at 37 °C to determine CFU counts.

| Compound | LC99.9 E. coli LUH15117 RPMI 2 h (E. coli LUH15117) | LC99.9 K. pneumoniae LUH15104 50% Plasma 2 h (K. pneumoniae LUH15104) | LC99.9 K. pneumoniae LUH15104 RPMI 2 h (K. pneumoniae LUH15104) | LC99.9 K. pneumoniae LUH15104 50% Plasma 18 h (K. pneumoniae LUH15104) | LC99.9 K. pneumoniae LUH15104 RPMI 18 h (K. pneumoniae LUH15104) | LC99.9 A. baumannii RUH875 50% Plasma 2 h (A. baumannii RUH875 [3]) | LC99.9 A. baumannii RUH875 50% Plasma 18 h (A. baumannii RUH875 [3]) | LC99.9 E. cloacae LUH15114 50% Plasma 2 h (E. cloacae LUH15114) | LC99.9 E. cloacae LUH15114 RPMI 2 h (E. cloacae LUH15114) | LC99.9 S. aureus LUH14616 50% Plasma 2 h (S. aureus LUH14616) | LC99.9 S. aureus LUH14616 RPMI 2 h (S. aureus LUH14616) | LC99.9 S. aureus LUH14616 50% Plasma 18 h (S. aureus LUH14616) | LC99.9 S. aureus LUH14616 RPMI 18 h (S. aureus LUH14616) | LC99.9 P. aeruginosa LUH15103 50% Plasma 2 h (P. aeruginosa LUH15103) | LC99.9 P. aeruginosa LUH15103 RPMI 2 h (P. aeruginosa LUH15103) | LC99.9 P. aeruginosa LUH15103 50% Plasma 18 h (P. aeruginosa LUH15103) | LC99.9 P. aeruginosa LUH15103 RPMI 18 h (P. aeruginosa LUH15103) | also measured |
| --- | --- | --- | --- | --- | --- | --- | --- | --- | --- | --- | --- | --- | --- | --- | --- | --- | --- | --- |
| CC[C@@H](C)[C@@H](NC(=O)[C@@H](CC(C)C)NC(=O)[C@@H](CCCCN)NC(=O)[C@@H](CCCCN)NC(=O)[C@H](NC(=O)[C@@H](Cc1c[nH]c2ccccc12)NC(=O)[C@@H](CCCNC(=N)N)NC(=O)[C@@H](Cc1ccccc1)NC(=O)[C@@H](CC(C)C)NC(C)=O)C(C)C)C(=O)N[C@H](CCCCN)C(=O)N[C@@H](C(=O)N[C@H](Cc1c[nH]c2ccccc12)C(=O)N[C@H](CCCNC(=N)N)C(=O)N[C@H](CCCCN)C(N)=O)C(C)C [GDST-045-RI] (HELM PEPTIDE1{[ac].[dL].[dF].[dR].[dW].[dV].[dK].[dK].[dL].[dI].[dK].[dV].[dW].[dR].[dK].[am]}$$$$V2.0; N-terminus and C-terminus assumed) | 3.75 µM | 15 µM | 15 µM | 7.5 µM | 7.5 µM | 1.88 µM | 0.94 µM | 120 µM | 15 µM | 15 µM | 0.94 µM | 1.88 µM | 0.94 µM | 30 µM | 3.75 µM | 30 µM | 3.75 µM | Concentrations killing ESKAPE pathogens in 50% plasma within 2 h (MDR ESKAPE pathogens; 50% plasma, 2 h, range over species): 0.94 to 120 µM; Concentrations killing ESKAPE pathogens in 50% plasma after 18 h (MDR ESKAPE pathogens; 50% plasma, 18 h, range over species): 0.94 to 30 µM; Concentrations killing ESKAPE pathogens in RPMI within 2 h (MDR ESKAPE pathogens; RPMI, 2 h, range over species): 0.94 to 15 µM; Time to complete killing of A. baumannii (A. baumannii RUH875 [1]; 3.75 μM): ≤ 120 min; Time to complete killing of S. aureus (S. aureus JAR060131 [2]; 3.75 μM): ≤ 30 min; LC99.9 E. coli LUH15117 RPMI 18 h (E. coli LUH15117; LUH15117, 18 h): 1.88 µM; LC99.9 E. cloacae LUH15114 50% Plasma 18 h (E. cloacae LUH15114; LUH15114, 18 h): 30 µM; LC99.9 E. cloacae LUH15114 RPMI 18 h (E. cloacae LUH15114; LUH15114, 18 h): 3.75 µM; Concentration giving significant reductions in adherent S. aureus in HSE (S. aureus JAR060131 [4]; adherent fraction, 4 h, p < 0.001): 15 µM; Effect on non-adherent S. aureus in HSE (S. aureus JAR060131 [4]; at 15 µM and 60 µM, 4 h): significant bacterial reductions |
| Ac-KRWVKIAKKWWRLL-NH2 [GDST-038] | 0.94 µM | 7.5 µM | 3.75 µM | 3.75 µM | 3.75 µM | 0.94 µM | 0.47 µM | 60 µM | 3.75 µM | 7.5 µM | 0.94 µM | 0.94 µM | 0.94 µM | 15 µM | 7.5 µM | 15 µM | 3.75 µM | Concentrations required for E. cloacae, S. aureus and P. aeruginosa in 50% plasma within 2 h (MDR ESKAPE pathogens; 50% plasma, 2 h, range over the three species): 30 to 60 µM; Time to complete killing of A. baumannii (A. baumannii RUH875 [1]; 1.88 μM): ≤ 5 min; Killing of A. baumannii within 5 min (A. baumannii RUH875 [1]; 1.88 μM, PBS, 5 min): > 90%; Time to complete killing of S. aureus (S. aureus JAR060131 [2]; 1.88 μM): ≤ 5 min; Killing of S. aureus within 5 min (S. aureus JAR060131 [2]; 1.88 μM, PBS, 5 min): > 90%; LC99.9 E. coli LUH15117 RPMI 18 h (E. coli LUH15117; colistin-resistant strain, RPMI, 18 h, median of three independent experiments): 1.88 µM; LC99.9 E. cloacae LUH15114 50% Plasma 18 h (E. cloacae LUH15114; 50% plasma, 18 h, median of three independent experiments): 1.88 µM; LC99.9 E. cloacae LUH15114 RPMI 18 h (E. cloacae LUH15114; RPMI, 18 h, median of three independent experiments): 1.88 µM; Concentration eradicating adherent S. aureus in HSE (S. aureus JAR060131 [4]; adherent fraction, 4 h peptide exposure, tested 3.75, 15, 60 μM): 15 µM; Effect on non-adherent S. aureus in HSE (S. aureus JAR060131 [4]; at all tested concentrations (3.75 µM, 15 µM, and 60 µM), 4 h): completely eradicated |
